# Results published in patent US20240209456A1, “METHODS AND COMPOSITIONS RELATED TO CELL-CYCLE RNA's” (BETH ISRAEL DEACONESS MEDICAL CENTER, priority 2021, published 2024).
# Entries after “also recorded” stand apart in the source; their conditions may differ.
# Columns and labels:
# H2A.Z = assay: nascent ChIP-qPCR (nasChIP) with H2A.Z antibody; assay type: cell-based, human; conditions: for restoration of H2A.Z distribution at c-MYC locus after DRB reversal: HL-60, 2 hrs after DRB wash-out, MG149 200 μM, TH1834 500 μM
# Procedure: (§1) To confirm the results of the ChIP-Seq, and to track the deposition of the H2A.Z, acH2A.Z nascent chromatin immunoprecipitation (nasChIP-PCR) was performed with the antibodies to H2A.Z, acH2A.Z and TIP60, as nasChIP-PCR can be used to track histone deposition. Cells were synchronized with a double thymidine block, released into S Phase and treated with DRB for 2 hrs. The medium was supplemented with the EdU DNA analog to enable collection of nascent chromatin DNA (FIG. 4A). […] The results of these experiments provide an important link between the suppressed c-MYC SPEARs expression and the reduced levels of the replacement histone H2A.Z, as an even greater degree of the loss of the acetylated acH2A.Z forms at the TSS of the c-MYC locus. Similar results were obtained for another gene locus, PU1 (FIG. 4F, right panels).
# Cells were synchronized with a double thymidine block and released into S Phase with DMSO/DRB added. After 2 hours (during which H2A.Z levels remained unaffected, but SPEARs and mRNA levels drop, see FIG. 10A), cells were washed and then incubated for a further 2 hours with or without the TIP60 inhibitors. This interval is sufficient for the levels of both the c-MYC mRNAs and its SPEARs to be restored when the TIP60 inhibitors are absent (results shown in FIG. 11B). […] Collected RNAs were biotinylated by click chemistry, isolated on streptavidin beads and analyzed by nas-qRT-PCR (see “Methods” below for details; FIG. 8A; bottom panel).
# To further confirm that SPEARs realize their c-MYC regulatory function directly through the TIP60/acH2A.Z pathway, the differences in chromatin occupancy of H2A.Z, acH2A.Z and TIP60 were assessed after inhibition of transcription (“DRB”), reversal of inhibition (“DRB REV”) and reversal of inhibition in the presence of the two TIP60 inhibitors, using nasChIP-qPCR. […] Furthermore, no enrichments of H2A.Z, acH2A.Z or TIP60 was detected within the Gene Desert locus (FIG. 11C). […]
# TIP60 = TIP60 (Homo sapiens, UniProt Q92993); assay: nascent ChIP-qPCR (nasChIP) with TIP60 antibody; assay type: cell-based; parameters: endogenous in cells; host or cells: HL-60; conditions: for restoration of TIP60 at c-MYC locus after DRB reversal: HL-60, 2 hrs after DRB wash-out, MG149 200 μM, TH1834 500 μM; for restoration of TIP60 enrichment at PU1 locus after DRB reversal: HL-60, MG149 and TH1834 treatments
# Sequence of TIP60 (Q92993 whole entry): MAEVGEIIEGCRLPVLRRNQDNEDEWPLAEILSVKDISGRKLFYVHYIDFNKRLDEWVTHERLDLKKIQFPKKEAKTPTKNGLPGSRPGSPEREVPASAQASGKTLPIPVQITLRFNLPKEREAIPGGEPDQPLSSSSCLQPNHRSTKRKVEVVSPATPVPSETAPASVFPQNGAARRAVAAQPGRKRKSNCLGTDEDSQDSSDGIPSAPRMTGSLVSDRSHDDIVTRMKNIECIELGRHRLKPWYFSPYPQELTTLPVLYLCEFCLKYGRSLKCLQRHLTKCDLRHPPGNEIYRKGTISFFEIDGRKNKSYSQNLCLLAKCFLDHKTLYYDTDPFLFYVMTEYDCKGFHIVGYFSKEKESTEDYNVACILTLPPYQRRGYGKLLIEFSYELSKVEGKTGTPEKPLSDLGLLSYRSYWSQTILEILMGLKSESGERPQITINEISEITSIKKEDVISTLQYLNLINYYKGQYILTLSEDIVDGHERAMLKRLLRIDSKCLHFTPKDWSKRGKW
# Procedure: as §1
# Cells were synchronized with a double thymidine block and released into S Phase with DMSO/DRB added. After 2 hours (during which H2A.Z levels remained unaffected, but SPEARs and mRNA levels drop, see FIG. 10A), cells were washed and then incubated for a further 2 hours with or without the TIP60 inhibitors. This interval is sufficient for the levels of both the c-MYC mRNAs and its SPEARs to be restored when the TIP60 inhibitors are absent (results shown in FIG. 11B). The medium was supplemented with the EU RNA and EdU DNA analogs to enable collection of nascent RNAs and newly formed chromatin that had escaped the drug-induced inhibition of transcription or acetylation. After 2 hours with the TIP60 inhibitors present (MG-149 at 200 μM and TH1834 at 500 μM), during which the levels of acH2A.Z dropped (see FIG. 11A), cells were crosslinked and subjected to nasChIP and nascent RNA expression analyses (nas-qRT-PCR) (FIG. 6B). Collected RNAs were biotinylated by click chemistry, isolated on streptavidin beads and analyzed by nas-qRT-PCR (see “Methods” below for details; FIG. 8A; bottom panel).
# To further confirm that SPEARs realize their c-MYC regulatory function directly through the TIP60/acH2A.Z pathway, the differences in chromatin occupancy of H2A.Z, acH2A.Z and TIP60 were assessed after inhibition of transcription (“DRB”), reversal of inhibition (“DRB REV”) and reversal of inhibition in the presence of the two TIP60 inhibitors, using nasChIP-qPCR. […] By analyzing the nascent RNAs and chromatin, only the immediate changes in c-MYC expression and TIP60, acH2A.Z and H2A.Z occupancy were examined within the locus as imposed by the inhibition of transcription and/or acetylation. […] When the two HAT inhibitors are present, the reversal of transcriptional inhibition can only restore the enrichment levels of the unmodified H2A.Z and TIP60 (FIG. 6D; left and right panels), but not the levels of acH2A.Z (middle panel). […] Furthermore, no enrichments of H2A.Z, acH2A.Z or TIP60 was detected within the Gene Desert locus (FIG. 11C). […] Similar results were obtained for the PU.1 locus (FIG. 11D and FIG. 11E). These findings using nasChIP are in line with the general trend obtained globally by ChIP-Seq. (FIG. 4C).
# Nascent RNA/DNA capture was performed using Click-iT Nascent RNA Capture Kit (ThermoFisher) according to the manufacturer's instructions with minor modifications. Briefly, 1. Labeling the cells with EU/EdU. 200 mM EU or 30 mM EdU stock solutions were added to the cells, to a final concentration 0.5 mM or 30 μM, respectively. 2. Incubation. The cells were incubated for 1 or 2 hours. 3. RNA/DNA isolation. The cells were harvested and the RNA/DNA were isolated and dissolved in 14 μL of H2O. 4. Biotinylation of RNA/DNA by Click reaction. Click-iT reaction cocktail (50 μL per reaction) was prepared accordingly to manufacturer's instructions: a mixture containing 1× Click-iT EU buffer; 2 mM CuSO4; 1 mM Biotin azide; 13.25 μL of the isolated RNA; 10 mM Click-iT reaction buffer additive 1; 12 mM Click-iT reaction buffer additive 2 was prepared. After adding each component, the reaction cocktail was gently mixed by vortexing. […]
# [1] = HL-60 released into S Phase, DRB 2 hrs
Compound,H2A.Z enrichment at c-MYC locus (H2A.Z; [1]),"TIP60 enrichment at PU1 locus (TIP60; HL-60, DRB treatment)",TIP60 enrichment at c-MYC locus (TIP60; [1]),restoration of H2A.Z distribution at c-MYC locus after DRB reversal (H2A.Z),restoration of TIP60 at c-MYC locus after DRB reversal (TIP60),restoration of TIP60 enrichment at PU1 locus after DRB reversal (TIP60)
"OC[C@H]1O[C@@H](n2cnc3cc(Cl)c(Cl)cc32)[C@H](O)[C@@H]1O [DRB, 5,6-Dichlorobenzimidazole 1-β-D-ribofuranoside]",diminished enrichment; also recorded: partial loss,loss,diminished enrichment and loss,–,–,–
CCCCCCCc1ccc(CCc2cccc(O)c2C(=O)O)cc1 [MG149],–,–,–,only slightly affecting,only slightly affecting,without affecting
O=C(O)Cn1nnc(-c2ccc(CN(CCCCOc3ccc(CN4CCCC4)cc3)CCc3ccccc3)cc2)n1 [TH1834],–,–,–,only slightly affecting,only slightly affecting,without affecting
